Patent publication US20210395208A1, “AMORPHOUS COMPOUNDS OF FORMULA (I) AND AMORPHOUS COMPOUNDS OF FORMULA (I) SALTS” (H. Lundeck A/S, priority 2018, published 2021)
Where a name gives a salt, the structure may show the parent alone.

Experiments:
Assay type in all cases: physicochemical
[1] = Physical stability of amorphous solids by XRPD on storage at ambient conditions; conditions: ambient conditions (15-35 degrees Celsius, 15-75 percent RH), 96 hours, 1, 4, 9 weeks, 5, 8, 12 months
Protocol: The term “ambient conditions” as used herein refers to conditions with a temperature range of 15-35 degrees Celsius and a relative humidity range of 15-75 percent.
X-Ray powder diffractograms were measured on a PANalytical X′Pert PRO X-Ray Diffractometer using CuKα1 radiation (λ=1.5406 Å). The samples were measured in reflection mode in the 2θ-range 3-40° using an X'celerator detector. (See FIGS. 3, 4 and 5).
The amorphous base and the fumarate salt of compound (Ia) were analyzed using XRPD to determine the physical stability of these solid forms. The presence of a substantially amorphous solid form was confirmed by a diffuse halo XRPD pattern similar to FIG. 3, which is characteristic for a solid amorphous form.
The short-term physical stability of the amorphous solids was analyzed immediately after preparation; the samples were analyzed by XRPD for 96 hours consecutively by alternating measurements every 2 hours. The long-term stability was then assessed by storing the amorphous solids under ambient conditions and analyzing them by XRPD after 1, 4 and 9 weeks as well as 5, 8 and 12 months.

[2] = Actual glass transition temperature (Tg) of the amorphous form by DSC; conditions: amorphous form made by melt quenching in the DSC pan, heated 10° C./min
Protocol: (§1) The terms “actual glass transition temperature” and “calculated glass transition temperature” as used herein refers to the measured (actual) and theoretical (calculated) glass transition temperature associated with a specific compound of Formula (I) or compound of Formula (I) salt. The actual glass transition temperature is determined from the DSC thermogram for the amorphous material, which is exemplified in example 1 and depicted in FIG. 2. The calculated glass transition temperature is calculated as ⅔ of the melting temperature (in Kelvin) of the crystalline form. FIG. 1 illustrate DSC thermograms of crystalline forms of compound (Ia), from which the melting temperature can be determined. The calculation procedure for estimation of the glass transition temperature is described in example 1.
(§2) As stated in the description of the present application, it is generally recognized that the glass transition temperature can be estimated as ⅔ of the melting temperature of the crystalline material (measured in Kelvin). From the DSC thermograms in FIG. 1 (left), it is seen that the crystalline base of compound (Ia) has an endothermic peak around 60° C. corresponding to the melting of the crystals. Based on the melting temperature of the crystalline base of compound (la), the calculated glass transition temperature of the amorphous form of this compound is thus ⅔*(60° C.+273)=222 K or −51° C. […] This means that the actual measured Tg of this amorphous form is around 5° C. and not −51° C. as calculated using the Beaman Rule.
(§3) Similar experiments were performed with the hydrogen fumarate of compound (Ia). Here the calculated Tg was based on the observed endothermic peak around 203° C. corresponding to the melting of the crystal (FIG. 1—right). Consequently, the calculated Tg is ⅔ *(203° C.+273)=317 K or 44° C. The thermogram of the amorphous form is shown in FIG. 2 (right) and depicts a change in heat capacity around 66° C. corresponding to a glass transition. This means that the actual measured Tg of the amorphous hydrogen fumarate of compound (Ia) is around 66° C. and not 44° C. as calculated.
Different scanning programs are used depending on the purpose of the analysis as given in example 9. In all DSC-experiments, 2-5 mg sample is packed into Tzero aluminum hermetic pans with a perforated lid, and the measurement is performed under 50 mL/min dry nitrogen gas purge.
Melting point and glass transition determined on the base of compound (Ia): Sample of 2-3 mg was packed into Tzero aluminum hermetic pans with a perforated lid and heated 1° C./min to 80° C. (giving the melting point), kept isothermal for 2 min., equilibrated at −50° C., and heated 10° C./min to 110° C. (giving the glass transition of the formed amorphous solid). […]

[3] = Recrystallization of amorphous material upon heating above Tg (DSC); conditions: DSC thermogram of the amorphous material, FIG. 2
Protocol: Melting point and glass transition determined on the base of compound (Ia): Sample of 2-3 mg was packed into Tzero aluminum hermetic pans with a perforated lid and heated 1° C./min to 80° C. (giving the melting point), kept isothermal for 2 min., equilibrated at −50° C., and heated 10° C./min to 110° C. (giving the glass transition of the formed amorphous solid).
Melting point and glass transition of the hydrogen fumarate of compound (Ia): Sample heated 1° C./min to 210° C. (giving the melting point), kept isothermal for 2 min., equilibrated at −50° C., and heated 10° C./min to 230° C. (giving the glass transition of the formed amorphous solid).

[4] = Calculated glass transition temperature, 2/3 of the crystalline melting temperature in Kelvin (Beaman's rule); conditions: crystalline melting points around 60° C. (base) and 203° C. (hydrogen fumarate)
Protocol: as §1
The glass transition temperature can be estimated as ⅔ of the melting temperature of the crystalline material (measured in Kelvin). This relationship is known as the “Beaman's rule” and applies to a wide range of both organic, inorganic, simple and polymeric materials. (Beaman, R. G. Journal of Polymer Science, 1952, 9(5): 470-472).
as §2, §3

Row | Compound | physical stability of the amorphous solid (XRPD pattern) ([1]; listed as free base) | actual (measured) glass transition temperature Tg [2] | actual (measured) glass transition temperature Tg ([2]; listed as amorphous base) | recrystallization upon heating above the glass transition [3] | calculated glass transition temperature Tg [4] [°C] | calculated glass transition temperature Tg ([4]; listed as amorphous base) | physical stability of the amorphous solid (XRPD pattern) [1] | actual (measured) glass transition temperature Tg ([2]; listed as amorphous hydrogen fumarate salt) [°C] | calculated glass transition temperature Tg ([4]; listed as amorphous hydrogen fumarate salt of compound (Ia)) [°C]
1 | [2H]c1c([2H])c([2H])c([C@@H]2C[C@@H](N3CCN(C([2H])([2H])[2H])C(C)(C)C3)c3cc(Cl)ccc32)c([2H])c1[2H] [amorphous base of compound (Ia)] | weak indication of crystallization of the free base after 5 months | around 5 °C | about 4 °C | do not recrystallize easily above the glass transitions | −51 | about −51 °C | – | – | –
2 | [2H]c1c([2H])c([2H])c([C@@H]2C[C@@H](N3CCN(C([2H])([2H])[2H])C(C)(C)C3)c3cc(Cl)ccc32)c([2H])c1[2H] [amorphous hydrogen fumarate of compound (Ia)] | – | around 66 °C | – | do not recrystallize easily above the glass transitions | 44 | – | substantially amorphous solids at all timepoints | 66 | ~44
